Patent US20220119354A1, “DIAMINO-SUBSTITUTED PYRIDINES AND PYRIMIDINES AS HERBICIDES” (FMC Corporation, priority 2019, published 2022)

What was measured:
Type in all cases: in vivo
kochia (Kochia scoparia) [1] = assay: Test A preemergence, kochia; conditions: 0 to 100 scale, 0 is no effect, 100 is complete control
Method in brief: (§1)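 Seeds sown in loam–sand blend received a directed soil spray of test chemical in non-phytotoxic solvent with surfactant (preemergence); postemergence plants at 2–10 cm, one- to two-leaf stage, were sprayed with the same formulation. Injury rated visually versus untreated controls after ~10 d in greenhouse, 0–100 scale.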

rice (Oryza sativa) = assay: Test B flooded paddy test, rice; conditions: Flood, 250 g ai/ha, applied to paddy water, 2-leaf stage, visual evaluation after 13 to 15 d
Method in brief: (§2)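 Each response is a visual 0–100 rating made against untreated controls, where 0 is no effect and 100 is complete control; a dash marks no result. Compound was dosed into 3 cm paddy water over 2-leaf plants, assessed after 13 to 15 d.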

[2] = system: ragweed (common ragweed, Ambrosia elatior); assay: Test A postemergence, ragweed; conditions: 0 to 100 scale, 0 no effect, 100 complete control
Method in brief: as §1

[3] = system: blackgrass (Alopecurus myosuroides); assay: Test A postemergence, blackgrass; conditions: 0 to 100 scale, 0 no effect, 100 complete control
Method in brief: as §1

[4] = system: barnyardgrass (Echinochloa crus-galli); assay: Test A postemergence, barnyardgrass; conditions: 0 to 100 scale, 0 no effect, 100 complete control
Method in brief: as §1

[5] = system: galium (catchweed bedstraw, Galium aparine); assay: Test A postemergence, galium; conditions: 0 to 100 scale, 0 no effect, 100 complete control
Method in brief: as §1

[6] = system: ragweed (common ragweed, Ambrosia elatior); assay: Test A preemergence, ragweed; conditions: 0 to 100 scale, 0 is no effect, 100 is complete control
Method in brief: as §1

[7] = system: foxtail, giant (Setaria faberii); assay: Test A postemergence, giant foxtail; conditions: 0 to 100 scale, 0 no effect, 100 complete control
Method in brief: as §1

[8] = system: barnyardgrass (Echinochloa crus-galli); assay: Test B flooded paddy test, barnyardgrass; conditions: Flood, 250 g ai/ha, applied to paddy water, 2-leaf stage, visual evaluation after 13 to 15 d
Method in brief: as §2

[9] = system: foxtail, giant (Setaria faberii); assay: Test A preemergence, giant foxtail; conditions: 0 to 100 scale, 0 is no effect, 100 is complete control
Method in brief: as §1

[10] = system: sedge, umbrella (small-flower umbrella sedge, Cyperus difformis); assay: Test B flooded paddy test, umbrella sedge; conditions: Flood, 250 g ai/ha, applied to paddy water, 2-leaf stage, visual evaluation after 13 to 15 d
Method in brief: as §2

[11] = system: ryegrass, Italian (Lolium multiflorum); assay: Test A preemergence, Italian ryegrass; conditions: 0 to 100 scale, 0 is no effect, 100 is complete control
Method in brief: as §1

corn (Zea mays) = assay: Test A postemergence, corn; conditions: 0 to 100 scale, 0 no effect, 100 complete control
Method in brief: as §1

[12] = system: pigweed (Amaranthus retroflexus); assay: Test A postemergence, pigweed; conditions: 0 to 100 scale, 0 no effect, 100 complete control
Method in brief: as §1

[13] = system: barnyardgrass (Echinochloa crus-galli); assay: Test A preemergence, barnyardgrass; conditions: 0 to 100 scale, 0 is no effect, 100 is complete control
Method in brief: as §1

kochia (Kochia scoparia) [14] = assay: Test A postemergence, kochia; conditions: 0 to 100 scale, 0 no effect, 100 complete control
Method in brief: as §1

[15] = system: ducksalad (Heteranthera limosa); assay: Test B flooded paddy test, ducksalad; conditions: Flood, 250 g ai/ha, applied to paddy water, 2-leaf stage, visual evaluation after 13 to 15 d
Method in brief: as §2

[16] = system: pigweed (Amaranthus retroflexus); assay: Test A preemergence, pigweed; conditions: 0 to 100 scale, 0 is no effect, 100 is complete control
Method in brief: as §1

[17] = system: wheat (Triticum aestivum); assay: Test A postemergence, wheat; conditions: 0 to 100 scale, 0 no effect, 100 complete control
Method in brief: as §1

[18] = system: ryegrass, Italian (Lolium multiflorum); assay: Test A postemergence, Italian ryegrass; conditions: 0 to 100 scale, 0 no effect, 100 complete control
Method in brief: as §1

Row | Compound | Kochia plant response rating (kochia (Kochia scoparia) [1]; 125 g ai/ha) | Kochia plant response rating (kochia (Kochia scoparia) [1]; 500 g ai/ha) | Plant response rating, Rice (0 to 100 scale, 0 is no effect, 100 is complete control) (rice (Oryza sativa)) | Plant response rating, Ragweed ([2]; 125 g ai/ha) | Plant response rating, Ragweed ([2]; 500 g ai/ha) | Plant response rating, Blackgrass ([3]; 125 g ai/ha) | Plant response rating, Blackgrass ([3]; 500 g ai/ha) | Plant response rating, Barnyardgrass ([4]; 125 g ai/ha) | Plant response rating, Barnyardgrass ([4]; 500 g ai/ha) | Plant response rating, Galium ([5]; 125 g ai/ha) | Plant response rating, Galium ([5]; 500 g ai/ha) | Ragweed plant response rating ([6]; 125 g ai/ha) | Ragweed plant response rating ([6]; 500 g ai/ha) | Plant response rating, Foxtail, Giant ([7]; 125 g ai/ha) | Plant response rating, Foxtail, Giant ([7]; 500 g ai/ha) | Plant response rating, Barnyardgrass (0 to 100 scale, 0 is no effect, 100 is complete control) [8] | Foxtail, Giant plant response rating ([9]; 125 g ai/ha) | Foxtail, Giant plant response rating ([9]; 500 g ai/ha) | Plant response rating, Sedge, Umbrella (0 to 100 scale, 0 is no effect, 100 is complete control) [10] | Ryegrass, Italian plant response rating ([11]; 125 g ai/ha) | other results
1 | C[C@@H](Nc1ncc(C(F)(F)F)c(N)n1)c1cc2ccccc2n1C [Compound 98] | 0 | 0 | 0 | 30 | 60 | 0 | 0 | 0 | 0 | 50 | 70 | 20 | 80 | 0 | 0 | 0 | 0 | 40 | 0 | 20 | Ryegrass, Italian plant response rating ([11]; 500 g ai/ha): 40; Plant response rating, Corn (corn (Zea mays); 125 g ai/ha): 0; Plant response rating, Corn (corn (Zea mays); 500 g ai/ha): 0; Plant response rating, Pigweed ([12]; 125 g ai/ha): 60; Plant response rating, Pigweed ([12]; 500 g ai/ha): 90; Barnyardgrass plant response rating ([13]; 125 g ai/ha): 20; Barnyardgrass plant response rating ([13]; 500 g ai/ha): 50; Plant response rating, Kochia (kochia (Kochia scoparia) [14]; 125 g ai/ha): 20; Plant response rating, Kochia (kochia (Kochia scoparia) [14]; 500 g ai/ha): 40; Plant response rating, Ducksalad (0 to 100 scale, 0 is no effect, 100 is complete control) [15]: 0; Pigweed plant response rating ([16]; 125 g ai/ha): 0; Pigweed plant response rating ([16]; 500 g ai/ha): 100; Plant response rating, Wheat ([17]; 125 g ai/ha): 0; Plant response rating, Wheat ([17]; 500 g ai/ha): 0; Plant response rating, Ryegrass, Italian ([18]; 125 g ai/ha): 0; Plant response rating, Ryegrass, Italian ([18]; 500 g ai/ha): 0
2 | CC(Nc1ncc([N+](=O)[O-])c(N)n1)c1cc2ccccc2s1 (stereo not drawn) [Compound 99] | 0 | 90 | 0 | 20 | 80 | 0 | 0 | 30 | 70 | 20 | 70 | 90 | 100 | 10 | 60 | 0 | 70 | 100 | 0 | 20 | Ryegrass, Italian plant response rating ([11]; 500 g ai/ha): 80; Plant response rating, Corn (corn (Zea mays); 125 g ai/ha): 0; Plant response rating, Corn (corn (Zea mays); 500 g ai/ha): 30; Plant response rating, Pigweed ([12]; 125 g ai/ha): 50; Plant response rating, Pigweed ([12]; 500 g ai/ha): 70; Barnyardgrass plant response rating ([13]; 125 g ai/ha): 40; Barnyardgrass plant response rating ([13]; 500 g ai/ha): 90; Plant response rating, Kochia (kochia (Kochia scoparia) [14]; 125 g ai/ha): 50; Plant response rating, Kochia (kochia (Kochia scoparia) [14]; 500 g ai/ha): 80; Plant response rating, Ducksalad (0 to 100 scale, 0 is no effect, 100 is complete control) [15]: 0; Pigweed plant response rating ([16]; 125 g ai/ha): 40; Pigweed plant response rating ([16]; 500 g ai/ha): 100; Plant response rating, Wheat ([17]; 125 g ai/ha): 0; Plant response rating, Wheat ([17]; 500 g ai/ha): 0; Plant response rating, Ryegrass, Italian ([18]; 125 g ai/ha): 0; Plant response rating, Ryegrass, Italian ([18]; 500 g ai/ha): 40
